Here are results for 2 compounds from US20080146555A1, “Uses of Kinase Inhibitors and Compositions Thereof” (GPC Biotech, Inc, priority 2004, published 2008).

Counter-ions that a name gives are not always drawn. Like-named read-outs stand apart in the source and are kept apart here.

In one assay the target is Cdk3 (Homo sapiens, UniProt Q00526). Put plainly: Cdk3 inhibition. The class given is biochemical. From the text: (§1) Further inhibition results for subject compounds of the invention against other CDKs and further kinases are shown in Table 5, Table II and described in Example 6.
(§2) Table 3, Table 4, Table 5 and Table II show the results obtained for inhibition of a broad range of such kinases for subject compounds of the invention.

The target of a further assay is Cdk4 (Homo sapiens, UniProt P11802). Put plainly: Cdk4 inhibition. It is filed as biochemical.
From the text: as §1, §2

Another assay deals with T1, JNK2α2 (Homo sapiens, UniProt P45984).
T1 construct: purchased Upstate 14-329
Put plainly: JNK2α2 kinase assay. The class given is biochemical. As to the method: • 1. 10× Reaction Buffer: 500 mM Tris-HCl, pH 7.5, 1 mM EGTA, 1% 2-mercaptoethanol. • 2. ATF2 (amino acids 19-69) (Catalog #12-367): Prepare a 30 μM stock. Use 2.5 μl per assay point for a final concentration of 3 μM per assay. • 3. JNK2α2/SAPK1a, active: Dilute to 4-40 ng/μl with 1× Reaction Buffer containing 0.03% Brij-35. Use 2.5 μl per assay point. • 4. […] [γ-^32P]ATP: Stock 1 mCi/100 μl (3000 Ci/mmol, obtained from PerkinElmer, Catalog #BLU002A). Make 10 μl aliquots (100 μCi/vial). Before starting the assay, dilute the Magnesium/ATP Cocktail 1:1 with sterile, distilled water. Then dilute an aliquot of [γ-^32P]ATP to 1 μCi/μl with 90 μl of the diluted Magnesium/ATP Cocktail. […]
• 1. Add 2.5 μl of 10× Reaction Buffer to a microcentrifuge tube. • 2. Add 2.5 μl […] of ATF2 (amino acids 19-69). • 3. Add 2.5 μl (10-100 ng) of JNK2α2/SAPK1a, active. • 4. Add 7.5 μl of sterile, distilled water. • 5. Add 10 μl of the diluted [γ-^32P]ATP solution. • 6. Incubate with agitation for 10 minutes at 30° C. • 7. Transfer a 20 μl aliquot onto the center of a 2 cm×2 cm P81 paper square (Catalog #20-134). • 8. Wash the paper squares three times with 0.75% phosphoric acid for 5 minutes. • 9. Wash the paper squares once for 5 minutes with acetone. • 10. Transfer the paper squares to a scintillation vial and add 5 ml scintillation cocktail. • 11. Read in scintillation counter. Compare the cpm of enzyme samples to the cpm of control samples that contain no enzyme (background control).

The next assay concerns the target T2, c-Src (Homo sapiens, UniProt P12931).
T2 construct: purchased Upstate 14-326
As to the kind of experiment: c-Src kinase assay. The class given is biochemical. The procedure:
• 1. Src Kinase Reaction Buffer (SrcRB), Catalog #20-121: 100 mM Tris-HCl, pH 7.2, 125 mM MgCl2, 25 mM MnCl2, 2 mM EGTA, 0.25 mM sodium ortovanadate, 2 mM dithiothreitol. • 2. [γ-^32P]ATP: Stock 1 mCi/100 μl (3000 Ci/mmol, obtained from DuPont-NEN). Make 10 μl aliquots (100 μCi/vial). Before starting the assay dilute an aliquot to 1 μCi/μl with 90 μl of 500 μM unlabeled ATP containing 75 mM MnCl2 20 mM MOPS, pH 7.2, 25 mM β-glycerophosphate, 5 mM EGTA, 1 mM Na3VO4, 1 mM dithiothreitol. • 3. Src Kinase Substrate Peptide (Catalog #12-140): Use a 0.6-1.5 mM stock. Rehydrate 1 mg peptide with […] distilled water or SrcRB for a 1.5 mM stock or with 998 μl for a 0.6 mM stock. • 4. Src, active: Use 20-80 Units per assay point. Dilute as required with SrcRB.
• 1. Add 10 μl of SrcRB into a microfage tube. • 2. Add 10 μl Src Kinase substrate peptide (93-375 μM/assay). • 3. Add 4-16 μl of Src, active (20-80 Units/assay). • 4. Add 10 μl of the diluted [γ-^32P]ATP. • 5. Incubate for 10 minutes at 30° C. • 6. Add 20 μl of 40% TCA and incubate for 5 minutes at room temperature. • 7. Transfer 25 μl to the center of a 2 cm×2 cm P81 paper square. • 8. Wash the assay squares five times for 5 minutes each with 0.75% phosphoric acid. • 9. Wash the assay squares once with acetone for 5 minutes. • 10. Transfer the assay squares to a scintillation vial and add 5 ml scintillation cocktail. • 11. Read in scintillation counter. Compare cpm of enzyme samples to cpm of control samples that contain no enzyme (background control).

The target in the next assay is T3, c-Kit (Homo sapiens, UniProt P10721).
T3 construct: purchased ProQinase (printed 'ProQuinase', Freiburg, Germany)
Put plainly: c-Kit kinase assay (ProQinase). To be noted: read-out: KIT Inhibition (IC50). It is filed as biochemical. The procedure: • c-kit can be assayed, for example, using the PanQinase Activity Assay or ProQuinase (Freiburg, Germany). Briefly:
Assay buffer-60 mM HEPES-NaOH, pH 7.5, 3 mM MgCl2, 3 mM MnCl2, 3 uM Na-orthovanadate, 1.2 mM DTT, 50 ug/ml PEG 20000, 1 uM [γ-^33P] ATP (approx. 5×10^5 cpm per well) • Reaction cocktail-20 ul assay buffer, 5 ul ATP, 5 ul test compound (in 10% DMSO), 10 ul substrate/10 ul enzyme=100 ng (pre-mixed). • The reaction cocktails are incubated at 30° C. for 80 minutes and terminated with addition of 50 ul 2% H3PO4. The plates are aspirated and washed two times with 200 ul H2O or 200 ul NaCl. Incorporation of radiolabelled substrate is determined with a microplate scintillation counter such as described in the Technical Note above.

In the next assay the test system is cell cycle. Put plainly: Cell cycle arrest. It is filed as cell-based.
Another assay deals with panel of Ser/Thr kinases. As to the kind of experiment: Kinase panel, Ser/Thr kinases (average). It is filed as biochemical. Conditions: average over panel; for IC50: read-out: average IC50 among non-CDK Ser/Thr kinases.
Setting [1] is: kinase panel, 10 μM ATP, read-out: JNK2α2 IC50.
Where [2] appears, read: read-out: MAPK9 Inhibition (IC50).
Setting [3] is: read-out: SRC Inhibition (IC50).

T2 sequence (P12931 whole entry): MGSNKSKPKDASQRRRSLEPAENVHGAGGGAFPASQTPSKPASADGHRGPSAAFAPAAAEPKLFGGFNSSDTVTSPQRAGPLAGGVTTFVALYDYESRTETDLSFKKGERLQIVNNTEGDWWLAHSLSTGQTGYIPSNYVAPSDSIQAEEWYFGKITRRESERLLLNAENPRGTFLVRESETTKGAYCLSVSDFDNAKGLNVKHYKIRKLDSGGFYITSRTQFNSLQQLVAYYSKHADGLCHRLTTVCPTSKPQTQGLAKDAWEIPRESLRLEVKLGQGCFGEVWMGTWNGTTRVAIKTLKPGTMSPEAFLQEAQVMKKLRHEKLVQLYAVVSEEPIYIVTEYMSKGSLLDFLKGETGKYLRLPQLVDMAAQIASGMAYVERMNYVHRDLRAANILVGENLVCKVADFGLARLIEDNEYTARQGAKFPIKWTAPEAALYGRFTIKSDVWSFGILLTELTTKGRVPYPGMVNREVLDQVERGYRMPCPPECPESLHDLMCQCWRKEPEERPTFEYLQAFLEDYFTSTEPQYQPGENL
T1 sequence (P45984 whole entry): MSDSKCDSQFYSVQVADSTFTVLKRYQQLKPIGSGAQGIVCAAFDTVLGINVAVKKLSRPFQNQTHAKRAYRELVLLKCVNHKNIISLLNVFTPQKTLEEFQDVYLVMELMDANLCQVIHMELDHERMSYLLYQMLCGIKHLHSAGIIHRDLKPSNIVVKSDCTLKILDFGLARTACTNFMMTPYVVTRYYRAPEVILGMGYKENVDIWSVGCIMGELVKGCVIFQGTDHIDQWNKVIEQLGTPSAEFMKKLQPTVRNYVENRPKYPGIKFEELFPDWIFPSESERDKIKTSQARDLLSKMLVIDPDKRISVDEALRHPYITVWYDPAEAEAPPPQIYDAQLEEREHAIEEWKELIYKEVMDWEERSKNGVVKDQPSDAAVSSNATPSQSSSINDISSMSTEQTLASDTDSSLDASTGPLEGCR
Chain of Cdk4 (P11802 whole entry, species assumed): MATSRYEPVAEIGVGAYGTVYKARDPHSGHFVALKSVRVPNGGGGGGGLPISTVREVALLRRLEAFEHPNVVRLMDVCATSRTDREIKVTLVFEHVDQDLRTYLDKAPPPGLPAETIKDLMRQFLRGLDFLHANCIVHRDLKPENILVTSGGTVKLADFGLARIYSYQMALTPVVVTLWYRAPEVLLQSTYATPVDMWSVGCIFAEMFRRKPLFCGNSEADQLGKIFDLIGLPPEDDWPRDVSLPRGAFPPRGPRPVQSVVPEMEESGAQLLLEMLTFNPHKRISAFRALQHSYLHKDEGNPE
Chain of Cdk4 (P24385 whole entry partner, species assumed): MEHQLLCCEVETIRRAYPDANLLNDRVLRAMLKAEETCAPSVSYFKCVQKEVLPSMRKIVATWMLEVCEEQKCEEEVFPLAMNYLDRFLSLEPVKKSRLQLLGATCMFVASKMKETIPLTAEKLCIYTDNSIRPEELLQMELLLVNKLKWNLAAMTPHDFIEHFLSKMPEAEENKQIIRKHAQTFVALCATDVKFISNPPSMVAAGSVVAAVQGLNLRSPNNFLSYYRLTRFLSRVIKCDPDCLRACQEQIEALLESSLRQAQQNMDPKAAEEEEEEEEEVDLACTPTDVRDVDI
Chain of Cdk3 (Q00526 whole entry, species assumed): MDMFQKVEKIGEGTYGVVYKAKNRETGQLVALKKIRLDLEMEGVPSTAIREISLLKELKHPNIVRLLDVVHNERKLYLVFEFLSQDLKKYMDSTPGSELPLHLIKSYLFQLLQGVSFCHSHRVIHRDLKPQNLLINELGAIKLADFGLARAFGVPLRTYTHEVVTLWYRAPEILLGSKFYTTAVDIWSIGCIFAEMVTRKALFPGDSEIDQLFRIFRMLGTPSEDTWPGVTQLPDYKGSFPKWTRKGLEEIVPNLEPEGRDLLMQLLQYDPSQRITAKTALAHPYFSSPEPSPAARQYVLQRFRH
Chain of Cdk3 (P24864 whole entry partner, species assumed): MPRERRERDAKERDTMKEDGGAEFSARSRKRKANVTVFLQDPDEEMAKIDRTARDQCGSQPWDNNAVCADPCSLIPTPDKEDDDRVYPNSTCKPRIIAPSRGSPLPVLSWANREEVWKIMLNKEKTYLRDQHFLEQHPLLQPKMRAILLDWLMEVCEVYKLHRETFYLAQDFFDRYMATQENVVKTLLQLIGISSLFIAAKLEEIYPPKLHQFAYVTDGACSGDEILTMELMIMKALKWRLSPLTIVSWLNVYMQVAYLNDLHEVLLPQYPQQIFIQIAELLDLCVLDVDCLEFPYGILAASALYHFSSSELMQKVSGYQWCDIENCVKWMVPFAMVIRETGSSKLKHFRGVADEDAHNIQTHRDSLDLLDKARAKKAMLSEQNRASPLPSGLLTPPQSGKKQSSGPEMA
T3 sequence (P10721 26-976): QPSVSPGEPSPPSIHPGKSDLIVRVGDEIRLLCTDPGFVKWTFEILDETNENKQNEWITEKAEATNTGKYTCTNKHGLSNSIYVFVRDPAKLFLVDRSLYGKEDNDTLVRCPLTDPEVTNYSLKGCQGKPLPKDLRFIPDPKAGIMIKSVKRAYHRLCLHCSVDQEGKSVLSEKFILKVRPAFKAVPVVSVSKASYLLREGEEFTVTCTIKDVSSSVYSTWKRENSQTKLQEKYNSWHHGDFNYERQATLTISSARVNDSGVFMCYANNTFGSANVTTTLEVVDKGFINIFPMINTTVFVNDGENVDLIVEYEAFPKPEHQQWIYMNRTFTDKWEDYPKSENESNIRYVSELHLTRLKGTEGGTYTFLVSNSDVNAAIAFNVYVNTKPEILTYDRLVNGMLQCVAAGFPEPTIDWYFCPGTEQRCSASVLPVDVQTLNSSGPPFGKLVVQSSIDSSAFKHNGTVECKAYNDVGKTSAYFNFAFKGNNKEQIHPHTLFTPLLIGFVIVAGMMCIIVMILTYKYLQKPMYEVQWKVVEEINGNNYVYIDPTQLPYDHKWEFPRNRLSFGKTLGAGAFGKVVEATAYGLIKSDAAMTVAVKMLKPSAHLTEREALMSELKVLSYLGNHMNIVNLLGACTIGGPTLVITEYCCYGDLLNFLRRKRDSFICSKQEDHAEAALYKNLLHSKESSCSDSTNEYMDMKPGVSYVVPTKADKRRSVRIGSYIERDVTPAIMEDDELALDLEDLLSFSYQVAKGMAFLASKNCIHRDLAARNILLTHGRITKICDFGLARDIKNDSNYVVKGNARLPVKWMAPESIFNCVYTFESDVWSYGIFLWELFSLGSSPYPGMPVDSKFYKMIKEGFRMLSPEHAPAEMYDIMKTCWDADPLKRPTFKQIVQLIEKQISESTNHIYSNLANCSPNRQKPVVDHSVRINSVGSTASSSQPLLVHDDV

For `CC(C)N1CCN(C(=O)COc2ccc(-c3n[nH]c4c3C(=O)c3c(NC(=O)NN5CCOCC5)cccc3-4)cc2)CC1` [Compound A37], the IC50 at Cdk3 is under 5 nM; at Cdk4, under 50 nM; at JNK2α2 (setting [1]), 10 to 100 nM; on JNK2α2 (setting [2]) it was under 50 nM; at c-Src (setting [3]), under 50 nM; at c-Kit it was under 500 nM. Besides, at panel of Ser/Thr kinases, the IC50 was 44 nM. Further, the cell cycle arrest entry with cell cycle is “predominantly G1 arrest”. Further, the “average IC50 among non-CDK Ser/Thr kinases” value in the assay with panel of Ser/Thr kinases was “about 29 nM”.
Take `COCCN1CCN(Cc2ccc(-c3n[nH]c4c3C(=O)c3c(NC(=O)NN5CCOCC5)cccc3-4)cc2)CC1` [Compound B16, N-[3-(4-{[4-(2-methoxyethyl)piperazinyl]methyl}phenyl)-4-oxoindeno[2,3-d]pyrazol-5-yl](morpholin-4-ylamino)carboxamide dihydrochloride]: the IC50 on Cdk3 is under 5 nM; against Cdk4, over 100 nM; at JNK2α2 (setting [1]) it was under 100 nM; at JNK2α2 (setting [2]) it was under 100 nM; at c-Src (kinase panel, 10 μM ATP, read-out: c-Src IC50) it was under 100 nM; on c-Src (setting [3]), under 50 nM. For the same compound, the IC50 is under 500 nM on c-Kit and about 50 nM on panel of Ser/Thr kinases. Also, the cell cycle arrest entry in the assay with cell cycle is “predominantly G1 arrest”.
